Values of other authors, collected in publication PMC4033579 (Journal of experimental therapeutics & oncology, 2012).

Assays:
[1] = test system: breast, ovarian, prostate tumor cells; conditions: prostate cells in culture
[2] = test system: human tumor xenografts

Cc1cc(Nc2nc(N[C@@H](C)c3ncc(F)cn3)ncc2Cl)[nH]n1 [AZD 1840]
cytotoxicity at concentrations that inhibit Tyr705 phosphorylation [1]: not cytotoxic | angiogenesis in human tumor xenografts [2]: reduction in angiogenesis | growth of human tumor xenografts [2]: reduced growth
